In article PMC10451377, “Rationally Designed Pyrimidine Compounds: Promising Novel Antibiotics for the Treatment of Staphylococcus aureus-Associated Bovine Mastitis” (Antibiotics, 2023):
In brackets after ≈: the same amount, converted by molar mass. Read-outs that look alike come from different tables or passages of the source.

Experiments:
[1] = tested on: Bacillus subtilis xpt-lacZ; assay: Broth microdilution MIC; format: cell-based; conditions: B. subtilis xpt-lacZ, read-out: Broth Microdilution MIC
[2] = parameters: method as in PMID 20421948; conditions: presence of water and oxygen; cited from earlier work
[3] = tested on: Staphylococcus aureus CMRSA-10; assay: Broth microdilution MIC; format: cell-based
Text: (§1) Reference strains for this study (S. aureus ATCC 29213, ATCC 29740 [bovine mastitis strain Newbould], S. epidermidis ATCC 12228, E. coli ATCC 35695, E. faecalis ATCC 29212) were obtained from the American Type Culture Collection (ATCC, Rockville, MD). S. aureus strains CMRSA-10 and CMRSA-2 were obtained from the Laboratoire de santé publique du Québec (LSPQ, Sainte-Anne-de-Bellevue, QC, Canada) and are Canadian CA-MRSA USA-300 and HA-MRSA USA-100 clones, respectively. The strain E. coli imp4213 (lptD), used as a control in MIC assays, is a derivative of E. coli ATCC 35695 (E. coli MC4100) with an increased membrane permeability. […] Other MRSA strains used in this study are clinical isolates of human origin obtained from the microbiology laboratory of the Centre Hospitalier Universitaire de Sherbrooke (CHUS, Sherbrooke, QC, Canada). Bovine mastitis strains (S. aureus, S. chromogenes, S. haemolyticus, S. hominis, S. simulans) were obtained from the Canadian Bovine Mastitis and Milk Quality Research Network (CBRQMN, St-Hyacinthe, QC, Canada). Among these strains, S. aureus 2117 is a high producer of biofilm and was used in the biofilm-eradication assay. S. epidermidis isolates were provided by Centre de Recherche en Infectiologie (CRI) de Québec (Québec, QC, Canada).

[4] = tested on: Staphylococcus aureus CMRSA-2; assay: Broth microdilution MIC; format: cell-based
Text: as §1

[5] = tested on: S. aureus guanine riboswitch; parameters: method as in PMID 20421948; conditions: cited from earlier work
S. aureus = tested on: S. aureus; parameters: method as in PMID 20421948; conditions: compared with PC1; cited from earlier work
[6] = tested on: guanine riboswitch-lacZ fusion construct (xpt-lacZ); assay: Riboswitch regulation assay (lacZ-gene reporter); format: cell-based, B. subtilis
Text: The novel pyrimidine compounds, especially PC206, display specificity and potency against some staphylococci but not the other bacterial genus (Table 1 and Table 2). Because they are structurally derived from PC1 and PC2, these novel antibiotic candidates are expected to have the same mode of action. […] To verify this hypothesis, a strain of B. subtilis with a guanine riboswitch-lacZ fusion construct (named xpt-lacZ) integrated in its chromosome was exposed to these new antimicrobials. […] Therefore, it is an adequate reporter species. The metabolization of substrate ONPG into colored ONP was normalized by the bacterial suspension absorbance at 600 nm (Miller units) and relativized to the untreated condition.
β-galactosidase gene expression in the presence of the new pyrimidine analogs was studied, using an xpt-lacZ transcriptional fusion construct integrated in the genome of B. subtilis as previously described. Briefly, cultures were grown for 5 h at 35 °C in CAMHB, from an initial optical density of 0.05 at 600 nm (OD600), and then diluted 1:20 and in the presence of different concentrations of the compounds tested. Cultures were centrifuged for 10 min at 13,100 rpm, the supernatant was discarded, and pellets were suspended in a Z-buffer (NaH2PO4 40 mM, Na2HPO4 60 mM, MgSO4 1 mM, KCl 10 mM). Cultures OD600 were measured, and bacteria were then lysed with lysozyme (1 mg/mL) and β-mercaptoethanol 50 mM for 30 min. Lysates were centrifuged for 10 min at 13,100 rpm, and supernatants were incubated for 5 min at 30 °C with the substrate orthonitrophenyl-β-galactoside (ONPG; Sigma Aldrich). Reactions were stopped with Na2CO3 1M, supernatants OD420 were measured, and Miller units were calculated. A decrease in β-galactosidase activity indicated binding of the test compound to the riboswitch. Guanine and oxacillin were used as […] controls, respectively. The formula to measure Miller units is as follows: Millerunits=1000×OD420/t·v·OD600
Here, t represents the time of incubation with ONPG, and v represents the volume of the reaction.

[7] = tested on: Staphylococcus aureus ATCC 29213; assay: Broth microdilution MIC; conditions: ATCC29213, read-out: Broth Microdilution MIC
MTT assay [8] = format: cell-based; conditions: human, HepG2 cells
LDH release assay [9] = format: cell-based; conditions: human, HepG2 cells
[10] = tested on: HepG2 and MAC-T cells versus S. aureus Newbould; assay: Selectivity ratios over both assays and both cell lines; format: cell-based; conditions: over MTT and LDH assays
Procedure: All CC50 values are reported in Table 3, and plots are provided in the Supplementary Information (Supplementary Figure S2). PC371 had no effect on cell viability even at the highest concentrations tested (CC50 > 600 μM) in both the MTT and the LDH assay and for the two cell lines tested. For the three other compounds, in both cell lines and both assays, a correlation was observed between the effect on cell viability and the length of their aliphatic chain. CC50 of PC372 (5 carbons) was higher than that of PC206 (6 carbons), and both were higher than that of PC383 (10 carbons). Indeed, for the MAC-T cells in the MTT assay, the values were >600 μM (PC372), 317 μM (PC206), and 13.5 μM (PC383). Again, for the MAC-T cell line, the values for the LDH assay were >600 μM (PC372 and PC206) and 23.6 μM (PC383). Similar results were obtained with the HepG2 cells. […] Overall, the MAC-T cells tolerated better exposure to the compounds than the HepG2 cells. To assess the selectivity of the PC2 analogs towards S. aureus, selectivity ratios were calculated. These ratios were obtained by dividing the cytotoxicity CC50 values of an analog by its MIC against S. aureus Newbould. It was not possible to calculate the selectivity ratio for PC371 as its CC50 and MIC values exceeded the maximum values tested.

[11] = tested on: Staphylococcus epidermidis ATCC 12228; assay: Broth microdilution MIC; conditions: ATCC12228, read-out: Broth Microdilution MIC
[12] = tested on: Enterococcus faecalis ATCC 29212; assay: Broth microdilution MIC; conditions: ATCC29212, read-out: Broth Microdilution MIC
LDH release assay [13] = format: cell-based; conditions: bovine, MAC-T cells, 24 h
[14] = tested on: all reference staphylococci strains tested, including MRSA; assay: Broth microdilution MIC, summary over reference staphylococci; conditions: Staphylococcus aureus, read-out: MIC ranging, against all reference staphylococci strains tested
MTT assay [15] = format: cell-based; conditions: bovine, MAC-T cells, 24 h
[16] = tested on: Escherichia coli ATCC 35695; assay: Broth microdilution MIC; conditions: ATCC35695, read-out: Broth Microdilution MIC
[17] = tested on: Escherichia coli ΔlptD4213; assay: microbe, parasite or virus in culture; format: cell-based; conditions: read-out: Broth Microdilution MIC
Text: as §1

[18] = tested on: all tested bacterial strains, including non-staphylococci strains; assay: Broth microdilution MIC, summary over all strains tested; conditions: read-out: MIC against all tested bacterial strains
[19] = CMRSA10, S. aureus CMRSA-10, read-out: Broth Microdilution MIC
[20] = CMRSA2, S. aureus CMRSA-2, read-out: Broth Microdilution MIC

Structure (SMILES) | Chemical stability [2] | Binding to the guanine riboswitch [5] | MIC [7] | CC50 at 24 h (MTT assay [8]) | CC50 at 24 h (LDH release assay [9]) | MIC [1] | MIC [3, 19] | MIC [4, 20] | Selectivity ratio (CC50/MIC against S. aureus Newbould), overall [10] | MIC [11] | MIC [12] | CC50 at 24 h (LDH release assay [13]) | CC50 at 24 h (MTT assay [15]) | MIC [16] | MIC [17] | also measured
Nc1nc(N)c(N)c(O)n1 [PC1, 2,5,6-triaminopyrimidine-4-one, reference compound] | chemically unstable | binding the guanine riboswitch of S. aureus |  |  |  |  |  |  |  |  |  |  |  |  |  | MIC ([1]; in the presence of 1.5 mM DTT): > 128 µg/mL; MIC ([3]; CMRSA10, S. aureus CMRSA-10, in the presence of 1.5 mM DTT, read-out: Broth Microdilution MIC): 2 µg/mL; MIC ([4]; CMRSA2, S. aureus CMRSA-2, in the presence of 1.5 mM DTT, read-out: Broth Microdilution MIC): 1 µg/mL
Nc1cc(O)nc(N)n1 [PC2] | more chemically stable | bind the riboswitch ex vivo |  |  |  |  |  |  |  |  |  |  |  |  |  | Antimicrobial activity against S. aureus (S. aureus): much lower antimicrobial activity
CCCCCNc1cc(N)nc(N)n1 [PC372] |  |  | 16 µg/mL (≈ 81.9 µM) | 341 ± 32 µM | 394 ± 15 µM | 128 µg/mL (≈ 656 µM) | 8 µg/mL (≈ 41 µM) | 16 µg/mL (≈ 81.9 µM) | above 3.9 | 8 µg/mL (≈ 41 µM) | > 128 µg/mL | > 600 µM | > 600 µM | > 128 µg/mL | > 128 µg/mL | Miller units remaining, relative to the untreated condition ([6]; 64 µg/mL): 50%; MIC [14]: 8 to 16 µg/mL (≈ 41 to 81.9 µM)
CCCCCCCCCCNc1cc(N)nc(N)n1 [PC383] |  |  | 4 µg/mL (≈ 15.1 µM) | 11.7 ± 5.8 µM | 6.6 ± 0.7 µM | 4 µg/mL (≈ 15.1 µM) | 4 µg/mL (≈ 15.1 µM) | 4 µg/mL (≈ 15.1 µM) | ~1 | 4 µg/mL (≈ 15.1 µM) | 4 µg/mL (≈ 15.1 µM) | 23.6 ± 8.4 µM | 13.5 ± 1.5 µM | 16 µg/mL (≈ 60.3 µM) | 8 µg/mL (≈ 30.1 µM) | Effect on Miller units ([6]; highest evaluated dose 2 µg/mL): did not impact Miller units’ expression; MIC [18]: 4 to 16 µg/mL (≈ 15.1 to 60.3 µM)
